Experimental data from PubChem BioAssay AID342 (DTP/NCI, 2004).
“And” between values parts separate entries of the source, which are not always exact repeats. Identical values can stand only once.

Tested on: Swiss mice, Sarcoma 180 sc, mean tumor weight T/C
Assay: NCI In Vivo Anticancer Drug Screen. Data for tumor model Sarcoma 180 (subcutaneous) in Swiss mice
Details: endpoint: mean tumor weight, higher = larger tumour
Procedure: The antitumor activity of compounds was measured in mice bearing transplantable tumors. Survival or tumor size were measured and the results are expressed as the measurement made in the treated group (T) divided by the measurement made in the vehicle treated control group (C). The tumor model used in this assay is Sarcoma 180 (subcutaneous) in Swiss mice

[1] = dose: 75.0 mg/kg/injection, schedule: Q01DX007 (ip), vehicle: carboxymethylcellulose (CMC)

## NC(Cc1cccs1)C(=O)O (centres undefined)
dose: 175.0 mg/kg/injection, schedule: Q01DX007 (ip), vehicle: carboxymethylcellulose (CMC)
  T/C: 95 % of control
dose: 250.0 mg/kg/injection, schedule: Q01DX007 (ip), vehicle: carboxymethylcellulose (CMC)
  T/C: 81 % of control
dose: 1000.0 mg/kg/injection, schedule: Q01DX007 (ip), vehicle: carboxymethylcellulose (CMC)
  T/C: 108 % of control

## CC1(C)O[C@@H]2C[C@H]3[C@@H]4CCC5=CC(=O)C=C[C@]5(C)[C@@]4(F)[C@@H](O)C[C@]3(C)[C@]2(C(=O)CO)O1
dose: 1.1 mg/kg/injection, schedule: Q#A X014 (sc), vehicle: steriod suspending solution
  T/C: 41 % of control and 57 % of control
dose: 1.65 mg/kg/injection, schedule: Q#A X014 (sc), vehicle: steriod suspending solution
  T/C: 33 % of control and 34 % of control
dose: 2.5 mg/kg/injection, schedule: Q#A X014 (sc), vehicle: steriod suspending solution
  T/C: 20 % of control and 26 % of control
dose: 3.75 mg/kg/injection, schedule: Q#A X014 (sc), vehicle: steriod suspending solution
  T/C: 22 % of control

## CCCCCCCCCCCCCCCCC(C(=O)O)C(O)(CC(=O)O)C(=O)O (centres undefined)
dose: 19.0 mg/kg/injection, schedule: Q01DX007 (ip), vehicle: carboxymethylcellulose (CMC)
  T/C: 81 % of control
dose: 37.5 mg/kg/injection, schedule: Q01DX007 (ip), vehicle: carboxymethylcellulose (CMC)
  T/C: 104 % of control
[1]
  T/C: 91 % of control

## O=C(O)Cc1c[nH]c2ccccc12
dose: 31.3 mg/kg/injection, schedule: Q01DX007 (ip), vehicle: saline
  T/C: 64 % of control
dose: 62.5 mg/kg/injection, schedule: Q01DX007 (ip), vehicle: saline
  T/C: 71 % of control
dose: 125.0 mg/kg/injection, schedule: Q01DX007 (ip), vehicle: saline
  T/C: 52 % of control
dose: 250.0 mg/kg/injection, schedule: Q01DX007 (ip), vehicle: saline
  T/C: 95 % of control

## CC(=O)OC1(C)CC(C)C(=O)C(C(O)CC2CC(=O)NC(=O)C2)C1 (centres undefined)
dose: 1:40.0 dilution, schedule: Q01DX007 (ip), vehicle: water
  T/C: 122 % of control
dose: 1:2000.0 dilution, schedule: Q01DX007 (ip), vehicle: water
  T/C: 79 % of control and 92 % of control
dose: 1:4000.0 dilution, schedule: Q01DX007 (ip), vehicle: water
  T/C: 49 % of control

## CC/C(=C(/CC)c1ccc(O)cc1)c1ccc(O)cc1
dose: 19.69 mg/kg/injection, schedule: Q01DX007 (sc), vehicle: steriod suspending solution
  T/C: 54 % of control
dose: 22.13 mg/kg/injection, schedule: Q01DX007 (sc), vehicle: steriod suspending solution
  T/C: 51 % of control
dose: 24.0 mg/kg/injection, schedule: Q01DX007 (sc), vehicle: steriod suspending solution
  T/C: 51 % of control
dose: 39.38 mg/kg/injection, schedule: Q01DX007 (sc), vehicle: steriod suspending solution
  T/C: 42 % of control
dose: 44.25 mg/kg/injection, schedule: Q01DX007 (sc), vehicle: steriod suspending solution
  T/C: 60 % of control
dose: 48.0 mg/kg/injection, schedule: Q01DX007 (sc), vehicle: steriod suspending solution
  T/C: 37 % of control
dose: 70.8 mg/kg/injection, schedule: Q01DX007 (sc), vehicle: steriod suspending solution
  T/C: 80 % of control
dose: 78.75 mg/kg/injection, schedule: Q01DX007 (sc), vehicle: steriod suspending solution
  T/C: 65 % of control
dose: 96.0 mg/kg/injection, schedule: Q01DX007 (sc), vehicle: steriod suspending solution
  T/C: 30 % of control
dose: 118.0 mg/kg/injection, schedule: Q01DX007 (sc), vehicle: steriod suspending solution
  T/C: 72 % of control
dose: 157.5 mg/kg/injection, schedule: Q01DX007 (sc), vehicle: steriod suspending solution
  T/C: 52 % of control
dose: 177.0 mg/kg/injection, schedule: Q01DX007 (sc), vehicle: steriod suspending solution
  T/C: 57 % of control

## Cc1cc(N=Nc2ccc(Sc3ccc(N=Nc4ccc(O)c(C(=O)O)c4)cc3)cc2)c(N)c(N=Nc2ccc(C(=O)O)cc2)c1N
dose: 6.25 mg/kg/injection, schedule: Q01DX007 (ip), vehicle: water
  T/C: 114 % of control
dose: 12.5 mg/kg/injection, schedule: Q01DX007 (ip), vehicle: water
  T/C: 106 % of control
dose: 25.0 mg/kg/injection, schedule: Q01DX007 (ip), vehicle: water
  T/C: 83 % of control

## CC1CN1P(=O)(N1CCCC1)N1CC1C (centres undefined)
dose: 15.5 mg/kg/injection, schedule: Q#A X014 (ip), vehicle: saline
  T/C: 27 % of control and 48 % of control
dose: 23.5 mg/kg/injection, schedule: Q#A X014 (ip), vehicle: saline
  T/C: 4 % of control
dose: 31.0 mg/kg/injection, schedule: Q01DX007 (ip), vehicle: saline
  T/C: 77 % of control
dose: 47.0 mg/kg/injection, schedule: Q01DX007 (ip), vehicle: saline
  T/C: 100 % of control
dose: 70.0 mg/kg/injection, schedule: Q01DX007 (ip), vehicle: saline
  T/C: 50 % of control

## COc1ccc2[nH]c3c(C)c4ccncc4c(C)c3c2c1
dose: 6.2 mg/kg/injection, schedule: Q01DX007 (ip), vehicle: carboxymethylcellulose (CMC)
  T/C: 81 % of control
dose: 12.5 mg/kg/injection, schedule: Q01DX007 (ip), vehicle: carboxymethylcellulose (CMC)
  T/C: 77 % of control
dose: 25.0 mg/kg/injection, schedule: Q01DX007 (ip), vehicle: carboxymethylcellulose (CMC)
  T/C: 33 % of control
dose: 27.0 mg/kg/injection, schedule: Q01DX007 (ip), vehicle: saline
  T/C: 72 % of control
dose: 40.0 mg/kg/injection, schedule: Q01DX007 (ip), vehicle: saline
  T/C: 88 % of control
dose: 50.0 mg/kg/injection, schedule: Q01DX007 (ip), vehicle: carboxymethylcellulose (CMC)
  T/C: 27 % of control
dose: 50.0 mg/kg/injection, schedule: Q01DX007 (ip), vehicle: steriod suspending solution
  T/C: 97 % of control
dose: 60.0 mg/kg/injection, schedule: Q01DX007 (ip), vehicle: saline
  T/C: 50 % of control
[1]
  T/C: 25 % of control
dose: 75.0 mg/kg/injection, schedule: Q01DX007 (ip), vehicle: steriod suspending solution
  T/C: 46 % of control
dose: 90.0 mg/kg/injection, schedule: Q01DX007 (ip), vehicle: saline
  T/C: 24 % of control
dose: 150.0 mg/kg/injection, schedule: Q01DX007 (ip), vehicle: carboxymethylcellulose (CMC)
  T/C: 19 % of control
dose: 150.0 mg/kg/injection, schedule: Q01DX007 (ip), vehicle: steriod suspending solution
  T/C: 31 % of control

## c1ncc2[nH]cnc2n1
dose: 31.25 mg/kg/injection, schedule: Q#A X014 (ip), vehicle: carboxymethylcellulose (CMC)
  T/C: 90 % of control
dose: 31.31 mg/kg/injection, schedule: Q#A X014 (ip), vehicle: carboxymethylcellulose (CMC)
  T/C: 108 % of control
dose: 57.5 mg/kg/injection, schedule: Q01DX007 (ip), vehicle: carboxymethylcellulose (CMC)
  T/C: 70 % of control
dose: 62.5 mg/kg/injection, schedule: Q#A X014 (ip), vehicle: carboxymethylcellulose (CMC)
  T/C: 120 % of control
dose: 62.62 mg/kg/injection, schedule: Q#A X014 (ip), vehicle: carboxymethylcellulose (CMC)
  T/C: 91 % of control
dose: 76.65 mg/kg/injection, schedule: Q#A X014 (ip), vehicle: carboxymethylcellulose (CMC)
  T/C: 120 % of control
dose: 115.0 mg/kg/injection, schedule: Q01DX007 (ip), vehicle: carboxymethylcellulose (CMC)
  T/C: 67 % of control
dose: 115.0 mg/kg/injection, schedule: Q#A X014 (ip), vehicle: carboxymethylcellulose (CMC)
  T/C: 93 % of control
dose: 125.0 mg/kg/injection, schedule: Q#A X014 (ip), vehicle: carboxymethylcellulose (CMC)
  T/C: 59 % of control
dose: 125.25 mg/kg/injection, schedule: Q#A X014 (ip), vehicle: carboxymethylcellulose (CMC)
  T/C: 66 % of control
dose: 153.3 mg/kg/injection, schedule: Q#A X014 (ip), vehicle: carboxymethylcellulose (CMC)
  T/C: 95 % of control
dose: 196.4 mg/kg/injection, schedule: Q01DX007 (ip), vehicle: carboxymethylcellulose (CMC)
  T/C: 88 % of control
dose: 200.4 mg/kg/injection, schedule: Q01DX007 (ip), vehicle: carboxymethylcellulose (CMC)
  T/C: 99 % of control
dose: 230.0 mg/kg/injection, schedule: Q01DX007 (ip), vehicle: carboxymethylcellulose (CMC)
  T/C: 42 % of control
dose: 230.0 mg/kg/injection, schedule: Q#A X014 (ip), vehicle: carboxymethylcellulose (CMC)
  T/C: 39 % of control
dose: 245.5 mg/kg/injection, schedule: Q01DX007 (ip), vehicle: carboxymethylcellulose (CMC)
  T/C: 90 % of control
dose: 250.0 mg/kg/injection, schedule: Q#A X014 (ip), vehicle: carboxymethylcellulose (CMC)
  T/C: 27 % of control
dose: 250.5 mg/kg/injection, schedule: Q01DX007 (ip), vehicle: carboxymethylcellulose (CMC)
  T/C: 111 % of control
dose: 250.5 mg/kg/injection, schedule: Q#A X014 (ip), vehicle: carboxymethylcellulose (CMC)
  T/C: 9 % of control
dose: 327.3 mg/kg/injection, schedule: Q01DX007 (ip), vehicle: carboxymethylcellulose (CMC)
  T/C: 44 % of control
dose: 334.0 mg/kg/injection, schedule: Q01DX007 (ip), vehicle: carboxymethylcellulose (CMC)
  T/C: 68 % of control
dose: 460.0 mg/kg/injection, schedule: Q01DX007 (ip), vehicle: carboxymethylcellulose (CMC)
  T/C: 13 % of control
dose: 491.0 mg/kg/injection, schedule: Q01DX007 (ip), vehicle: carboxymethylcellulose (CMC)
  T/C: 48 % of control
dose: 501.0 mg/kg/injection, schedule: Q01DX007 (ip), vehicle: carboxymethylcellulose (CMC)
  T/C: 12 % of control
